Results reported in patent publication US12102631B2, “Quinolylnitrones for the treatment and prevention of a cerebral stroke or ischaemia” (ISQUAEMIA BIOTECH, S.L., priority 2018, dated 2024).

Columns and labels:
[1] = Hydroxyl radical scavenging (competition with DMSO); format: biochemical; conditions: tested at 100 μM
Experimental: Hydroxyl Radicals Scavenging Activity.^32 The hydroxyl radicals were produced by the Fe^3+/ascorbic acid system. EDTA (0.1 mM), Fe^3+ (167 μM), DMSO (33 mM) in phosphate buffer (50 mM, pH 7.4), the tested compounds (0.1 mM) and ascorbic acid (10 mM) were mixed in test tubes. The solutions were incubated at 37° C. for 30 min. The reaction was stopped by trichloroacetic acid (17% w/v) (Table 1) and the % scavenging activity of the tested compounds for hydroxyl radicals was given.
3.2. Competition of QNs with DMSO for hydroxyl radicals. Among the ROS, the hydroxyl (·OH) free radical is possibly the most toxic, as it easily reacts with biological important molecules such as DNA, lipids or carbohydrates. Polyunsaturated fatty acids are found in high concentrations in the CNS, and are particularly vulnerable to free radicals attack. Thus, we tried to test the ability of our compound to scavenge hydroxyl radicals. […] Antioxidants with lipophilic character are needed to act as radical scavengers or as chain-breaking antioxidants in biological membranes.

[2] = tested on: primary neuronal cultures from rat cerebral cortex; assay: Neuroprotection (MTT cell viability) in primary neuronal cultures exposed to oxygen-glucose deprivation (OGD); format: cell-based; conditions: 24 h recovery after 4 h OGD; for neuronal viability compared with R24 h (in words): concentrations as stated or in FIG. 4
Experimental: Primary neuronal cultures. Primary neuronal cultures from rat cerebral cortex were prepared as previously described.^54 All procedures associated with animal experiments were approved by the Ethics Committee of the Hospital Ramón y Cajal, Madrid (Spain). Cell suspensions from cerebral cortex were prepared from 16- to 17-day-old Sprague-Dawley rat embryos. Living cells in cell suspension were counted by trypan blue exclusion method. Cells were seeded on plastic multidishes precoated with 0.05 mg/mL poly-D-lysine at a density of 2.5×10^5 cells/cm^2 and were kept at 37° C. in a 6.5% CO2 atmosphere in high glucose Dulbecco's medium supplemented with 15% heat-inactivated (56° C. for 30 min) foetal calf serum. After 24 h, cultured cells were […] to induce experimental ischemia.^23 Cultured cells were washed and placed in glucose-free Dulbecco's medium (bubbled with 95% N2/5% CO2 for 30 min), and maintained in a humidified hypoxia chamber equipped with an oxygen and carbon dioxide control unit (Biospherix) at 6.5% CO2 and <0.1% O2 in N2 at 37° C. Cells were exposed to OGD for a period of 4 h (OGD 4 h). At the end of the OGD period, culture medium was replaced with oxygenated serum-free medium, and cells were placed and maintained in the normoxic incubator for 24 h to recovery (R24 h). In the neuroprotection experiments, the compounds were added at the onset of recovery period. Control cultures in Dulbecco's medium containing glucose were kept in the normoxic incubator for the same period of time as the OGD, and then medium (Dulbecco's/Ham's F12, 1:1 [vol/vol], 5 mg/mL glucose, 2 mM L-glutamine, and 1 mM sodium pyruvate, and supplemented with 100 μg/mL transferrin, 100 μM putrescine, 20 nM progesterone, 30 nM sodium selenite and 5 μg/mL insulin). Here, 6-7 day old cultured neurons were used in the experiments, and contained 90% β-III-tubulin-positive mature neurons, as described previously.^55
Exposure of cell cultures to oxygen-glucose deprivation and treatments. Primary neuronal cultures were exposed to […]. Control experiments included the same amounts of vehicle (final concentration<0.5% ethanol). Nitrone 2 was used as reference compound for neuroprotection. The experimental procedures were blindly performed, assigning a random order to each assayed nitrone. Nitrones were analyzed independently four-eight times with different batch of cultures and each experiment was run in quadruplicate.
Cell viability assay. Cell viability was evaluated by quantification of living, metabolically active cells, as determined by a colorimetric assay using the photometric reduction of 3-(4,5-dimethylthiazol-2-yl)-2,5-diphenyl tetrazolium bromide (MTT) (Roche) to a blue formazan product. The assay of living, metabolically active cells was performed by incubating with 0.2 mg/mL MTT in the culture medium for 1.5 h in an incubator at 37° C. in a 6.5% CO2 atm. After the incubation period, cells were lysed with an equal volume of 10 mM HCl and 10% SDS overnight. Values were quantified by absorbance (test 595 nm, reference 690 nm). Decreased MTT activity denotes impairment of mitochondrial function and is considered to be an index of cell damage. Primary neuronal cultures were collected at times indicated for MTT determination.
Neuroprotection of compounds was evaluated by a cell viability assay. The neuroprotective effect of the compounds 5-32 was evaluated on primary neuronal cultures from cerebral cortex subjected to oxygen-glucose deprivation (OGD) to induce experimental ischemia. Afterwards, cultured neurons were placed and kept in normoxic and normoglycemic conditions to recovery. […]

[3] = Quantitative nitrite assay for NO release (Griess); format: biochemical; conditions: 100 μM, L-cysteine, pH 7.4, 60 min 37° C.
Experimental: Quantitative nitrite assays for NO release. A solution of nitrone 23 (final concentration 100 μM) (20 μL), dissolved in DMSO, was added to 2 mL of 50 mM phosphate buffer (pH=7.4) containing the appropriate amount of thiol cofactor 1 mM (L-cysteine). After 60 min at 37° C., 1 mL of the reaction mixture was treated with 250 μL of the Griess reagent (4 g sulfanilamide, 0.2 g N-naphthyl-ethyldiamine dihydrochloride, 10 mL of 85% phosphoric acid in distilled water, final volume 100 mL). After the mixture stood for 10 min at rt, absorbance was recorded at 540 nm. Sodium nitroprusside (SNP) was used as standard reference compound (100 μM). The yield in nitrite (NO2^− release) for nitrone 23, as function of L-cysteine (mM concentration) is given in Table 1, expressed as % NO2^− (mol/mol).
QNs were tested in vitro for their ability to release NO by the action of a thiol co-factor. NO release with simultaneous production of cyanide occurs by action of reducing agents like thiols. L-cysteine was used as a co-factor in this in vitro biological test. […] The screened compounds (final concentration 100 μM) was tested for its ability to release NO when dissolved in a phosphate buffer containing L-cysteine (pH 7.4). Air was oxidizing the initially formed NO, transforming it to nitrites, which were detected by the Griess reaction. Virtually, no formation of NO2^− was detectable in the absence of L-cysteine for the nitrones tested.

[4] = Rattus norvegicus, R24 h = 0%, control = 100%

CC(C)(C)/[N+]([O-])=C/c1ccc(S(=O)(=O)O)cc1S(=O)(=O)O [Compound 2, sodium (Z)-4-((tert-butyloxidoazanylidene)methyl)benzene-1,3-disulfonate, reference compound]
*OH (%) [1]: 94% | neuronal viability compared with R24 h (in words) [2]: only produced a significant neuroprotective effect at 250 μM | viability at 100 µM [2, 4]: 42.8 ± 2.31% | viability at 250 µM [2, 4]: 52.9 ± 2.52% | viability at 500 µM ([2]; Rattus norvegicus, 500 μM, R24 h = 0%, control = 100%): 46.5 ± 1.1% | NO2− (%) (mol/mol) [3]: 1 % (mol/mol)

CC(C)(C)/[N+]([O-])=C/c1cc2ccccc2nc1Cl [Compound 18, (Z)—N-t-Butyl-1-(2-chloroquinolin-3-yl)methanimine oxide]
*OH (%) [1]: 97% | viability at 1 µM [2, 4]: 9.76 ± 0.84% | viability at 10 µM [2, 4]: 29 ± 3.83% | viability at 100 µM [2, 4]: < 0% | NO2− (%) (mol/mol) [3]: 7.5 % (mol/mol)

CC(C)(C)/[N+]([O-])=C/c1cc2ccccc2[nH]c1=O [Compound 19, (Z)—N-tert-Butyl-1-(2-oxo-1,2-dihydroquinolin-3-yl)methanimine oxide]
*OH (%) [1]: 99% | neuronal viability compared with R24 h (in words) [2]: significantly increased neuronal viability | viability at 100 µM [2, 4]: 48.8 ± 2.29% | viability at 250 µM [2, 4]: 55 ± 1.89%

COc1ccc2nc(Cl)c(/C=[N+](/C)[O-])cc2c1 [Compound 22, (Z)-1-(2-Chloro-6-methoxyquinolin-3-yl)-N-methylmethanimine oxide]
*OH (%) [1]: 100% | viability at 0.3 µM [2, 4]: < 0% | viability at 1 µM [2, 4]: < 0% | viability at 10 µM [2, 4]: < 0% | viability at 100 µM [2, 4]: < 0% | viability at 250 µM [2, 4]: < 0% | NO2− (%) (mol/mol) [3]: 11 % (mol/mol)

COc1ccc2nc(Cl)c(/C=[N+](\[O-])C(C)(C)C)cc2c1 [Compound 23, (Z)—N-tert-Butyl-1-(2-chloro-6-methoxyquinolin-3-yl)methanimine oxide]
*OH (%) [1]: 100% | neuronal viability compared with R24 h (in words) [2]: significantly increased neuronal viability | viability at 10 µM [2, 4]: 52 ± 1.75% | viability at 100 µM [2, 4]: 77.1 ± 2.24% | viability at 250 µM [2, 4]: 65.9 ± 2.87% | NO2− (%) (mol/mol) [3]: 3 % (mol/mol)

COc1ccc2nc(Cl)c(/C=[N+](\[O-])Cc3ccccc3)cc2c1 [Compound 24, (Z)—N-Benzyl-1-(2-chloro-6-methoxyquinolin-3-yl)methanimine oxide]
*OH (%) [1]: 65% | viability at 0.3 µM [2, 4]: < 0% | viability at 1 µM [2, 4]: 31.3 ± 1.38% | viability at 10 µM [2, 4]: 29.7 ± 1.38% | viability at 100 µM [2, 4]: 38.9 ± 1.31% | NO2− (%) (mol/mol) [3]: 12.5 % (mol/mol)

COc1ccc2nc(Cl)c(C=O)cc2c1 [Compound 32, 2-chloro-6-methoxyquinoline-3-carbaldehyde, reference compound]
*OH (%) [1]: 89% | neuronal viability compared with R24 h (in words) [2]: nor carbaldehyde 32, the precursor of potent QN 23, showed neuroprotective activity | viability at 1 µM [2, 4]: < 0% | viability at 10 µM [2, 4]: < 0% | viability at 100 µM [2, 4]: < 0% | NO2− (%) (mol/mol) [3]: 2.5 % (mol/mol)
